Measurements reported in patent US7160685B2, “Diagnostic reagents for human cytomegalovirus and methods of use” (priority 1996, dated 2007).
Where two headings read alike, the source gives them in different places.

Columns and labels:
HLA A*0209 = HLA A*0209 (Homo sapiens, UniProt P04439, A260E/D140Y/D185E/D98H/E176V/E277Q/G131W/G231S/I119V/I121R/I166T/I218V/L300P/L318F/N151K/N90K/P208A/P217A/Q86G/Q94H/R138H/R169H/T345S)
Method: (§1) Twelve cell lines were subjected to chromium release assays in which they were pulsed with the 495 peptide (pp65495-503) nonamer, loaded with chromium-51, and incubated with two different HLA A*0201 restricted CTL which recognize the 495 peptide and HCMV. The specific cytotoxicity was calculated and is shown in tabular form below for the 1 μM and 1 nM concentrations of the 495 peptide.

HLA A*0206 = HLA A*0206 (Homo sapiens, UniProt P04439, D140Y/D185E/D98H/E176V/E277Q/F33Y/G131W/G231S/I119V/I121R/I166T/I218V/L300P/L318F/N151K/N90K/P208A/P217A/Q86G/Q94H/R138H/R169H/T345S)
Method: as §1

HLA A*0210 = HLA A*0210 (Homo sapiens, UniProt P04439, D140Y/D185E/D98H/E176V/E277Q/F33Y/G231S/I119V/I121R/I166T/I218V/L300P/L318F/N151K/N90K/P208A/P217A/Q86G/Q94H/R138H/R169H/T345S/Y123F)
Method: as §1

495 peptide targets = conditions: after 14 weeks; 495 peptide + PADRE + IFA
HLA A*0211 = HLA A*0211 (Homo sapiens, UniProt P04439, D140Y/D185E/E176V/E277Q/G131W/G231S/I119V/I121R/I166T/I218V/L300P/L318F/N151K/N90K/P208A/P217A/Q86G/Q94H/R138H/R169H/T345S/T97I)
Method: as §1

HLA A*0205 = HLA A*0205 (Homo sapiens, UniProt P04439, D140Y/D185E/D98H/E176V/E277Q/F33Y/G131W/G231S/I119L/I121R/I166T/I218V/L180W/L300P/L318F/N151K/N90K/P208A/P217A/Q67R/Q86G/Q94H/R138H/R169H/T345S)
Method: as §1

HLA A*0202 = HLA A*0202 (Homo sapiens, UniProt P04439, D140Y/D185E/D98H/E176V/E277Q/G131W/G231S/I119L/I121R/I166T/I218V/L180W/L300P/L318F/N151K/N90K/P208A/P217A/Q67R/Q86G/Q94H/R138H/R169H/T345S)
Method: as §1

HLA A*0204 = HLA A*0204 (Homo sapiens, UniProt P04439, D140Y/D185E/D98H/E176V/E277Q/G131W/G231S/I119V/I121M/I166T/I218V/L300P/L318F/N151K/N90K/P208A/P217A/Q86G/Q94H/R138H/R169H/T345S)
Method: as §1

HLA A*0217 = HLA A*0217 (Homo sapiens, UniProt P04439, D140Y/D185E/D98H/E176V/E277Q/G131W/G231S/I119L/I121M/I166T/I218V/L300P/L318F/N151K/N90K/P208A/P217A/Q86G/Q94H/R138H/R169H/T345S/Y123F)
Method: as §1

HLA A*0207 = HLA A*0207 (Homo sapiens, UniProt P04439, D140Y/D185E/D98H/E176V/E277Q/G131W/G231S/I119V/I121R/I166T/I218V/L300P/L318F/N151K/N90K/P208A/P217A/Q86G/Q94H/R138H/R169H/T345S/Y123C)
Method: as §1

CSCC[C@H](NC(=O)[C@@H]1CCCN1C(=O)[C@@H](NC(=O)[C@H](CC(C)C)NC(=O)[C@@H](N)CC(N)=O)C(C)C)C(=O)N[C@H](C(=O)N[C@@H](C)C(=O)N[C@H](C(=O)N[C@H](C(=O)O)C(C)C)[C@@H](C)O)C(C)C [SEQ ID NO:1]
− (cytotoxicity less than 15%): specific cytotoxicity (HLA A*0209; A*0209, CTL 3-3F4, 1 nM) | specific cytotoxicity (HLA A*0209; A*0209, CTL VB-57, 1 nM) | specific cytotoxicity (HLA A*0211; A*0211, CTL 3-3F4, 1 nM) | specific cytotoxicity (HLA A*0205; A*0205, CTL 3-3F4, 1 nM) | specific cytotoxicity (HLA A*0202; A*0202, CTL 3-3F4, 1 nM) | specific cytotoxicity (HLA A*0202; A*0202, CTL VB-57, 1 nM) | specific cytotoxicity (HLA A*0217; A*0217, CTL 3-3F4, 1 nM)
40%: Percent specific cytotoxicity (cytotoxicity of 495 peptide targets—cytotoxicity of p53 targets) (495 peptide targets)
+ (cytotoxicity greater than 30%): specific cytotoxicity (HLA A*0209; A*0209, CTL 3-3F4, 1 μM) | specific cytotoxicity (HLA A*0209; A*0209, CTL VB-57, 1 μM) | specific cytotoxicity (HLA A*0206; A*0206, CTL 3-3F4, 1 nM) | specific cytotoxicity (HLA A*0206; A*0206, CTL 3-3F4, 1 μM) | specific cytotoxicity (HLA A*0206; A*0206, CTL VB-57, 1 nM) | specific cytotoxicity (HLA A*0206; A*0206, CTL VB-57, 1 μM) | specific cytotoxicity (HLA A*0210; A*0210, CTL 3-3F4, 1 nM) | specific cytotoxicity (HLA A*0210; A*0210, CTL 3-3F4, 1 μM) | specific cytotoxicity (HLA A*0210; A*0210, CTL VB-57, 1 nM) | specific cytotoxicity (HLA A*0210; A*0210, CTL VB-57, 1 μM) | specific cytotoxicity (HLA A*0211; A*0211, CTL 3-3F4, 1 μM) | specific cytotoxicity (HLA A*0211; A*0211, CTL VB-57, 1 μM) | specific cytotoxicity (HLA A*0205; A*0205, CTL 3-3F4, 1 μM) | specific cytotoxicity (HLA A*0205; A*0205, CTL VB-57, 1 nM) | specific cytotoxicity (HLA A*0205; A*0205, CTL VB-57, 1 μM) | specific cytotoxicity (HLA A*0202; A*0202, CTL 3-3F4, 1 μM) | specific cytotoxicity (HLA A*0202; A*0202, CTL VB-57, 1 μM) | specific cytotoxicity (HLA A*0204; A*0204, CTL 3-3F4, 1 nM) | specific cytotoxicity (HLA A*0204; A*0204, CTL 3-3F4, 1 μM) | specific cytotoxicity (HLA A*0204; A*0204, CTL VB-57, 1 nM) | specific cytotoxicity (HLA A*0204; A*0204, CTL VB-57, 1 μM) | specific cytotoxicity (HLA A*0217; A*0217, CTL 3-3F4, 1 μM) | specific cytotoxicity (HLA A*0217; A*0217, CTL VB-57, 1 nM) | specific cytotoxicity (HLA A*0217; A*0217, CTL VB-57, 1 μM) | specific cytotoxicity (HLA A*0207; A*0207, CTL 3-3F4, 1 nM) | specific cytotoxicity (HLA A*0207; A*0207, CTL 3-3F4, 1 μM) | specific cytotoxicity (HLA A*0207; A*0207, CTL VB-57, 1 nM) | specific cytotoxicity (HLA A*0207; A*0207, CTL VB-57, 1 μM)
